Test results published in PMC11945486, “TAS1R2/TAS1R3 Single-Nucleotide Polymorphisms Affect Sweet Taste Receptor Activation by Sweeteners: The SWEET Project” (Nutrients, 2025).

Target: T1, human TAS1R2-A574T (subunit alone) (Homo sapiens, UniProt Q8TE23, A574T)
T1 construct: expressed in transfected cells; host or cells: HEK293T-Gα16gust44
T1 sequence (Q8TE23 20-839 A574T): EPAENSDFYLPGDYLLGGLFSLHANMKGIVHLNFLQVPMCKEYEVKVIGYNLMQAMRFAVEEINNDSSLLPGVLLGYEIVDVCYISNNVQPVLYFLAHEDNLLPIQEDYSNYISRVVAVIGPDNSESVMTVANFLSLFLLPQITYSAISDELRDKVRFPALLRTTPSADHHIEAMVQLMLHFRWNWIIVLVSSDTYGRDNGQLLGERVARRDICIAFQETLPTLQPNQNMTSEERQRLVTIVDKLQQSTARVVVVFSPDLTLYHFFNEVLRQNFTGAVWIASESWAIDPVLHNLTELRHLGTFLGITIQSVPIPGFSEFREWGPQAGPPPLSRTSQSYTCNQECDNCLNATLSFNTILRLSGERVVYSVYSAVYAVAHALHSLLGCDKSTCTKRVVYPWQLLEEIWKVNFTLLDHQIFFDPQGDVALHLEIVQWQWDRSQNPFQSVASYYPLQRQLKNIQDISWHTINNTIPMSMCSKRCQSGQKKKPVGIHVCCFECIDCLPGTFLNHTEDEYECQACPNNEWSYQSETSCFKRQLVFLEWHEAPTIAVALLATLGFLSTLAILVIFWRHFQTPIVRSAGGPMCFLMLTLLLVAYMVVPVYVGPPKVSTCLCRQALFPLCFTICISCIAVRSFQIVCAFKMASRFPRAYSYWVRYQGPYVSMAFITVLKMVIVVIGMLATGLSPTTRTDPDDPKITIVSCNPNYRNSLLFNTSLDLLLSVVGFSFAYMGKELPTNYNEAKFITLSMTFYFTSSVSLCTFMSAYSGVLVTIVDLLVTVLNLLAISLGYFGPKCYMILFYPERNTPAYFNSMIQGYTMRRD
Assay: Calcium mobilisation assay, TAS1R2-A574T subunit alone
Format: cell-based
From the text: The coding sequences for TAS1R2 and TAS1R3 were commercially synthesised, and the human codon was optimised for expression in human cells. The coding sequences of human TAS1R2 and TAS1R3 were subcloned and inserted into the mammalian expression vectors pcDNA6/myc-HisA and pcDNA4/myc-HisA (Invitrogen; Thermo Fisher Scientific; Illkirch, France) between the EcoRI and NotI restriction sites, generating the plasmids pcDNA6-TAS1R2 and pcDNA4-TAS1R3, respectively. To increase protein expression in mammalian cells, an upstream start codon was used, which was a sequence called MAX, corresponding to the QBI SP163 element also described in pcDNA4-HisMax (Invitrogen; Thermo Fisher Scientific; Illkirch, France). To measure the expression level of the receptor by immunohistochemistry, we used the FLAG sequence ([…]) in the C-terminal position, which encodes the FLAG tag epitope. […]
The HEK293T cells were kindly provided by Jay P. Slack (Givaudan Flavors Corporation; Cincinnati, OH, USA). […] The fluorescence intensity was measured for 90 s (excitation 488 nm, emission 510 nm) in an automated fluorometric FlexStation®3 Multi-Mode microplate reader (Molecular Devices; San Jose, CA, USA). […] The Ca^2+ changes were expressed as fractional changes in fluorescent light intensity: ΔF/F = (F − F0)/F0, where F was the fluorescent light intensity at each point, and F0 was the value of emitted fluorescent light prior to stimulus application. To calculate dose–response relationships, the changes in fluorescence upon stimulus application were averaged, mock-subtracted and baseline-corrected. […] The half-maximal effective concentrations (EC50 values) and maximal signal amplitudes were calculated using SigmaPlot software (version 15.0) (Systat Software; San Jose, CA, USA).
For in vitro calcium mobilisation assay performed on hTAS1R2-SNPs, hTAS1R3-SNPs and mTAS1R3-I60T, 6 to 7 concentrations were tested for each sweet compound, plus buffer alone. All concentration–receptor combinations were measured in duplicate, and each experiment was repeated at least 4 times (8 wells/concentration). […]

EC50: 85.3 ± 12.4 µM
R1 = Variant EC50/WT EC50: 0.9
Max ΔF/F0 (maximal signal amplitude): 0.25 ± 0.01
Structure (SMILES): C=C(C)[C@@H]1CC=C(/C=N/O)CC1 [Perillartine, perillartine]
